Values after ≈ are worked out from the molar mass of the structure shown.
Assays:
[1] = system: Mycobacterium tuberculosis; assay: Antimycobacterial activity against multidrug-resistant Mycobacterium tuberculosis clinical isolate HD1 assessed as inhibition of bacterial growth incubated for 7 days by microplate alamar blue assay; assay type: functional; details: Clinical isolate HD1, 168 h, time 7 day
[2] = system: Mycobacterium tuberculosis; assay: Antimycobacterial activity against multidrug-resistant Mycobacterium tuberculosis clinical isolate HD2 assessed as inhibition of bacterial growth incubated for 7 days by microplate alamar blue assay; assay type: functional; details: Clinical isolate HD2, 168 h, time 7 day
[3] = system: Mycobacterium tuberculosis; assay: Antimycobacterial activity against multidrug-resistant Mycobacterium tuberculosis clinical isolate HD5 assessed as inhibition of bacterial growth incubated for 7 days by microplate alamar blue assay; assay type: functional; details: Clinical isolate HD5, 168 h, time 7 day
[4] = system: Mycobacterium tuberculosis; assay: Antimycobacterial activity against multidrug-resistant Mycobacterium tuberculosis clinical isolate HD3 assessed as inhibition of bacterial growth incubated for 7 days by microplate alamar blue assay; assay type: functional; details: Clinical isolate HD3, 168 h, time 7 day
[5] = system: Mycobacterium tuberculosis; assay: Antimycobacterial activity against rifampin resistant Mycobacterium tuberculosis H37Rv assessed as inhibition of bacterial growth incubated for 7 days by microplate alamar blue assay; assay type: functional; details: 168 h, time 7 day
[6] = system: Mycobacterium tuberculosis; assay: Antimycobacterial activity against multidrug-resistant Mycobacterium tuberculosis clinical isolate HD4 assessed as inhibition of bacterial growth incubated for 7 days by microplate alamar blue assay; assay type: functional; details: Clinical isolate HD4, 168 h, time 7 day
[7] = Inhibition of Mycobacterium tuberculosis DprE1 Y314A mutant expressed in Escherichia coli BL21 DE3 assessed as formation of resorufin using FPR as substrate incubated for 10 mins by Amplex Red dye microplate assay
[8] = Inhibition of Mycobacterium tuberculosis DprE1 C387A mutant expressed in Escherichia coli BL21 DE3 assessed as formation of resorufin using FPR as substrate incubated for 10 mins by Amplex Red dye microplate assay
[9] = Inhibition of Mycobacterium tuberculosis DprE1 K418A mutant expressed in Escherichia coli BL21 DE3 assessed as formation of resorufin using FPR as substrate incubated for 10 mins by Amplex Red dye microplate assay
[10] = system: Mycobacterium tuberculosis; assay: Antimycobacterial activity against Mycobacterium tuberculosis DprE1 C387S assessed as inhibition of bacterial growth incubated for 7 days by microplate alamar blue assay; assay type: functional; details: time 7 day
[11] = system: Mycobacterium tuberculosis; assay: Antimycobacterial activity against rifampin resistant Mycobacterium tuberculosis H37Rv assessed as reduction in bacterial colony forming units at 20 times MIC concentration measured after 21 days by time kill assay; assay type: functional; details: time 21 day
[12] = Inhibition of Mycobacterium tuberculosis DprE1 C387S mutant expressed in Escherichia coli BL21 DE3 assessed as formation of resorufin using FPR as substrate incubated for 10 mins by Amplex Red dye microplate assay

Structure (SMILES)	MIC [1]	MIC [2]	MIC [3]	MIC [4]	MIC [5]	MIC [6]	IC50 [7]	IC50 [8]	IC50 [9]	MIC [10]	Activity [11]	IC50 [12]
O=C(NC(=O)c1ccsc1NC(=O)c1nc2ccccc2s1)OCC1CCC1	1.88 µM (≈ 0.781 µg/mL)	3.76 µM (≈ 1.56 µg/mL)	3.76 µM (≈ 1.56 µg/mL)	1.88 µM (≈ 0.781 µg/mL)	6.01 µM (≈ 2.5 µg/mL)	3.76 µM (≈ 1.56 µg/mL)	–	–	–	–	–	–
CCOC(=O)NC(=O)c1ccsc1NC(=O)c1nc2ccccc2s1	4.15 µM (≈ 1.56 µg/mL)	8.33 µM (≈ 3.13 µg/mL)	8.33 µM (≈ 3.13 µg/mL)	2.07 µM (≈ 0.777 µg/mL)	3.32 µM (≈ 1.25 µg/mL)	8.33 µM (≈ 3.13 µg/mL)	0.11 µM	44 µM	65 µM	6.65 µM (≈ 2.5 µg/mL)	3.5 log10CFU/ml	5.79 µM
O=C(NC(=O)c1ccsc1NC(=O)c1nc2ccccc2s1)OCC1CC1	1.94 µM (≈ 0.779 µg/mL)	3.88 µM (≈ 1.56 µg/mL)	1.94 µM (≈ 0.779 µg/mL)	0.97 µM (≈ 0.389 µg/mL)	1.57 µM (≈ 0.63 µg/mL)	1.94 µM (≈ 0.779 µg/mL)	0.029 µM	0.069 µM	8.93 µM	1.57 µM (≈ 0.63 µg/mL)	3.5 log10CFU/ml	0.059 µM
NNC(=O)c1ccncc1 [ISONIAZID]	18.2 µM (≈ 2.5 µg/mL)	36.5 µM (≈ 5 µg/mL)	36.5 µM (≈ 5 µg/mL)	9.11 µM (≈ 1.25 µg/mL)	–	18.2 µM (≈ 2.5 µg/mL)	–	–	–	–	–	–
CC(=O)c1ccc(C(=O)Nc2sccc2C(=O)NC(=O)OCC2CC2)cc1	–	–	–	–	–	–	–	3.33 µM	–	–	–	3.98 µM
CO[C@H]1/C=C/O[C@@]2(C)Oc3c(C)c(O)c4c(O)c(c(/C=N/N5CCN(C)CC5)c(O)c4c3C2=O)NC(=O)/C(C)=C\C=C\[C@H](C)[C@H](O)[C@@H](C)[C@@H](O)[C@@H](C)[C@H](OC(C)=O)[C@@H]1C [RIFAMPIN]	1.9 µM (≈ 1.56 µg/mL)	3.82 µM (≈ 3.14 µg/mL)	3.82 µM (≈ 3.14 µg/mL)	0.95 µM (≈ 0.782 µg/mL)	1.13 µM (≈ 0.93 µg/mL)	1.9 µM (≈ 1.56 µg/mL)	–	–	–	0.35 µM (≈ 0.288 µg/mL)	–	–
COc1nc2ccc(Br)cc2cc1[C@@H](c1ccccc1)[C@@](O)(CCN(C)C)c1cccc2ccccc12 [BEDAQUILINE]	0.07 µM (≈ 0.0389 µg/mL)	0.29 µM (≈ 0.161 µg/mL)	0.07 µM (≈ 0.0389 µg/mL)	0.14 µM (≈ 0.0778 µg/mL)	–	0.58 µM (≈ 0.322 µg/mL)	–	–	–	–	–	–

— ChEMBL document CHEMBL5143519, “Exploring disordered loops in DprE1 provides a functional site to combat drug-resistance in Mycobacterium strains” (Eur J Med Chem, 2022)
